Measured values reported in patent publication US9694072B2, “Methods for diagnosing and treating neuroendocrine cancer” (Trustees of Dartmouth College, priority 2005, dated 2017).
Structures can show the parent of a compound that is named as a salt. Where two headings read alike, the source gives them in different places.

Legend:
[1] = system: LNCAP prostate cancer cells; assay: Prostate cancer cell viability (Alamar Blue); format: cell-based, human
Description: To determine the effects of NMDAR1 antibodies on prostate cell viability, LNCAP prostate cancer cells were plated in 96 well plates at 1-2×10^4 cells/well. […] Alamar Blue was later added to each well following an incubation period, and fluorescent readings taken at excitation 530-560 nm and emission 590 nm and above on a SYNERGY HT Multi Detection Reader.

[2] = system: NCI-H345 classical SCLC cells; assay: Cell growth/viability assay (Alamar Blue); conditions: for IC50: Homo sapiens
Description: Cultures of NCI-H345, NCI-H146, DMS-53 cells (classical cell lines), and NCI-H82 cells (variant cell line) were treated with 0.05% trypsin, washed in phosphate buffered saline (PBS)/glycine and plated onto 96-well plates at 10^4 cells/well in medium for 24 hours to provide time for rectifying possible damage to membrane proteins from the trypsinization. The wells were washed and incubated with PBS/glycine containing albumin (1.25 mg/mL) in the presence or absence of different concentrations (25 μM-800 μM) of either the NMDAR 1 antagonists, Memantine or MK-801; or the NMDAR2B antagonists Ifenprodil and Ro 25-6981 (binders to the polyamine site), or the NMDAR2B antagonists L-701,252 and L-701,324 (binders to the glycine site), or vehicle; and Alamar Blue (1:10 dilution following manufacturer's recommendation). Fluorescent readings were taken at periods representing 24, 48, and 72 hours of incubation with antagonist using a Synergy HT Multi-Detection Microplate Reader and excitation/emission wavelengths of 530 nm and 590 nm. Cell viability was evaluated as % vehicle control at the corresponding incubation time.
This peptide domain is represented in that portion of the mRNA message sequenced by RT-PCR. For studies on cell proliferation, the IgGs of this antiserum were first isolated by precipitation with 50% saturated ammonium sulfate, and antibodies purified from these immunoglobulins by affinity chromatography using a column containing the peptide component of the above antigen coupled to SEPHAROSE (Friedmann, et al. (1994) supra; Keegan, et al. (2002) supra).

[3] = system: NCI-H82 variant SCLC cells; assay: Cell growth/viability assay (Alamar Blue); format: cell-based, human; conditions: for IC50: Homo sapiens
Description: (§1) Cultures of NCI-H345, NCI-H146, DMS-53 cells (classical cell lines), and NCI-H82 cells (variant cell line) were treated with 0.05% trypsin, washed in phosphate buffered saline (PBS)/glycine and plated onto 96-well plates at 10^4 cells/well in medium for 24 hours to provide time for rectifying possible damage to membrane proteins from the trypsinization. […] Fluorescent readings were taken at periods representing 24, 48, and 72 hours of incubation with antagonist using a Synergy HT Multi-Detection Microplate Reader and excitation/emission wavelengths of 530 nm and 590 nm. Cell viability was evaluated as % vehicle control at the corresponding incubation time.

[4] = system: SKBr3 breast cancer cells; assay: Alamar Blue growth/proliferation study; format: cell-based, human
[5] = system: SKBr3 breast cancer cells; assay: Alamar Blue growth/proliferation study; format: cell-based, human; conditions: SKBr3, NMDAR1 antagonist treatment
Description: Results represent triplicate studies performed with Alamar Blue on LAN2 neuroblastoma, MCF-7 breast cancer, and SKBr3 breast cancer cells examining the growth influence of 1 mM glutamate in the presence of glycine over 24 hours.
Results represent triplicate studies performed with Alamar Blue on LAN2 neuroblastoma, MCF-7 breast cancer, and SKBr3 breast cancer cells examining the growth influence of 100 mM Mg^++ in the presence of glycine over 24 hours.

[6] = system: Human tumor xenografts of breast cancer cells; assay: Breast cancer xenografts treated with anti-NMDAR1 antibodies; design: species or system nu/nu mice; conditions: mouse
Description: Human tumor xenografts of breast cancer cells were raised in nu/nu mice, and the influence of anti-NMDAR1 polyclonal antibodies then examined on tumor growth. For antibody studies, growth in a control group (n=4) was compared to tumor growth in animals (n=4) receiving 50 ng of Protein A-isolated, antibody-containing, IgG once each day for 15 days. Tumor was then measured for an […]. While control tumors grew to >20 times their original size, tumors treated with anti-NMDAR1 antibodies shrank to <50% original size and remained at this shrunken size for the duration of treatment (p<<0.0001)(FIG. 7). Tumor size then began very slowly to rise but even 20 days later they were only back to original size (100%). Values are expressed as a percentage of tumor size at day 0 (+/−SEM).

[7] = system: SCLC NCI-H345 tumor xenografts; assay: Treatment of SCLC tumor xenografts in mice; format: in vivo, nu/nu mice
Text: Human tumor xenografts of small cell lung cancer (SCLC) cell line NCI-H345 were raised in nu/nu mice, and the influence of the NMDAR1 receptor antagonist dizocilpine maleate (MK-801) then examined on established tumor growth measured by multiplying depth, width, and length determined using a micrometer. Tumor growth in a control group of animals receiving i.p. PBS vehicle (n=4) was compared to tumor growth in animals (n=4) receiving dizocilpine maleate (MK-801) over 10 days. Animals received an escalating single dose of this NMDAR1 antagonist from 0.1 mg/Kg body weight each day for days 0-2, then to a single dose of 0.2 mg/Kg body weight each day for days 3-6, then to a single dose of 0.3 mg/Kg body weight each day for days 7-8. Finally two daily doses of 0.3 mg/Kg body weight were given for days 8-10.
Results were analyzed by Analysis of Variance and the Student-Neuman-Kuels test. Longitudinal growth data was evaluated using repeated measures ANOVA. Significant was determined to be present for p<0.05.

DMS-53 cells = assay: Cell growth/viability assay (Alamar Blue); format: cell-based, human; conditions: Homo sapiens, DMS-53, 48 h, read-out: IC50, cell viability
Description: as §1

[8] = system: MCF-7 breast cancer cells; assay: Alamar Blue growth/proliferation study; format: cell-based, human; conditions: MCF-7, NMDAR1 antagonist treatment
NCI-H146 cells = assay: Cell growth/viability assay (Alamar Blue); format: cell-based, human; conditions: Homo sapiens, NCI-H146, 48 h, read-out: IC50, cell viability
Description: as §1

[9] = system: Ovarian A2780 and A2008 cancer cells; assay: Ovarian cancer cell growth (Alamar Blue); format: cell-based, human
Description: Ovarian A2780 and A2008 cancer cells were plated in 96 well plates at 1-2×10^4 cells/well. […] Alamar Blue was later added to each well following an incubation period, and fluorescent readings taken at excitation 530-560 nm and emission of 590 nm and above on a SYNERGY HT Multi Detection Reader. […] Significance was p<0.001 for 400 to 900 μM of MK-801. […] These findings indicate both NMDAR antagonists and anti-NMDA receptor monoclonal antibodies would be of use as effective inhibitors of ovarian tumor xenografts in mice.

`C[C@]12N[C@H](Cc3ccccc31)c1ccccc12` [MK-801, dizocilpine maleate] was tested, and the “effect on cell growth/viability (in words)” value [1] was “significance in reductions was p<0.001 for 400 to 900 μM”, the IC50 ([2]; NCI-H345, 48 h, read-out: IC50, cell viability) was 300 µM and the IC50 ([2]; NCI-H345, read-out: IC50, cell viability) was roughly 200 µM. The “Cell viability reduced to” value ([2]; NCI-H345, 24, 48, and 72 hours incubation) was “about 10 % of control”, the IC50 ([3]; NCI-H82, 48 h, read-out: IC50, cell viability) was 300 µM and the IC50 ([3]; NCI-H82, read-out: IC50, cell viability) was roughly 200 µM. The “Cell viability reduced to” value ([3]; NCI-H82, 24, 48, and 72 hours incubation) was “about 10 % of control”, the “Proliferation of SKBr3 Cells Percent Fluorescence Compared to Control” value ([4]; 100 μM, 24 Hours) was 92.29 ± 6.82% and the “Proliferation of SKBr3 Cells Percent Fluorescence Compared to Control” value ([4]; 100 μM, 48 Hours) was 91.74 ± 2.94%. For the same compound, the “Proliferation of SKBr3 Cells Percent Fluorescence Compared to Control” value ([4]; 100 μM, 72 Hours) was 95.06 ± 1.22%, the “Proliferation of SKBr3 Cells Percent Fluorescence Compared to Control” value ([4]; 200 μM, 24 Hours) was 89.47 ± 5.77% and the “Proliferation of SKBr3 Cells Percent Fluorescence Compared to Control” value ([4]; 200 μM, 48 Hours) was 89.35 ± 2.83%. For the same compound, the “Proliferation of SKBr3 Cells Percent Fluorescence Compared to Control” value ([4]; 200 μM, 72 Hours) was 93.24 ± 1.68%, the “Proliferation of SKBr3 Cells Percent Fluorescence Compared to Control” value ([4]; 300 μM, 24 Hours) was 84.39 ± 5.01% and the “Proliferation of SKBr3 Cells Percent Fluorescence Compared to Control” value ([4]; 300 μM, 48 Hours) was 83.79 ± 2.71%. The “Proliferation of SKBr3 Cells Percent Fluorescence Compared to Control” value ([4]; 300 μM, 72 Hours) was 88.97 ± 2.04%, the “Proliferation of SKBr3 Cells Percent Fluorescence Compared to Control” value ([4]; 400 μM, 24 Hours) was 75.17 ± 4.67% and the “Proliferation of SKBr3 Cells Percent Fluorescence Compared to Control” value ([4]; 400 μM, 48 Hours) was 70.62 ± 2.34%. The “Proliferation of SKBr3 Cells Percent Fluorescence Compared to Control” value ([4]; 400 μM, 72 Hours) was 77.08 ± 2.78%, the “Proliferation of SKBr3 Cells Percent Fluorescence Compared to Control” value ([4]; 500 μM, 24 Hours) was 65.50 ± 3.74% and the “Proliferation of SKBr3 Cells Percent Fluorescence Compared to Control” value ([4]; 500 μM, 48 Hours) was 59.07 ± 2.49%. For the same compound, the “Proliferation of SKBr3 Cells Percent Fluorescence Compared to Control” value ([4]; 500 μM, 72 Hours) was 67.02 ± 5.13%, the “Proliferation of SKBr3 Cells Percent Fluorescence Compared to Control” value ([4]; 600 μM, 24 Hours) was 58.06 ± 3.00% and the “Proliferation of SKBr3 Cells Percent Fluorescence Compared to Control” value ([4]; 600 μM, 48 Hours) was 50.59 ± 2.34%. For the same compound, the “Proliferation of SKBr3 Cells Percent Fluorescence Compared to Control” value ([4]; 600 μM, 72 Hours) was 52.57 ± 2.28%, the “Proliferation of SKBr3 Cells Percent Fluorescence Compared to Control” value ([4]; 700 μM, 24 Hours) was 51.97 ± 2.77% and the “Proliferation of SKBr3 Cells Percent Fluorescence Compared to Control” value ([4]; 700 μM, 48 Hours) was 43.84 ± 3.41%. The “Proliferation of SKBr3 Cells Percent Fluorescence Compared to Control” value ([4]; 700 μM, 72 Hours) was 44.88 ± 3.40%, the “Proliferation of SKBr3 Cells Percent Fluorescence Compared to Control” value ([4]; 800 μM, 24 Hours) was 43.27 ± 2.50% and the “Proliferation of SKBr3 Cells Percent Fluorescence Compared to Control” value ([4]; 800 μM, 48 Hours) was 33.77 ± 4.19%. For the same compound, the “Proliferation of SKBr3 Cells Percent Fluorescence Compared to Control” value ([4]; 800 μM, 72 Hours) was 33.91 ± 4.35%, the “Proliferation of SKBr3 Cells Percent Fluorescence Compared to Control” value ([4]; 900 μM, 24 Hours) was 35.73 ± 2.66% and the “Proliferation of SKBr3 Cells Percent Fluorescence Compared to Control” value ([4]; 900 μM, 48 Hours) was 25.48 ± 5.92%. The “Proliferation of SKBr3 Cells Percent Fluorescence Compared to Control” value ([4]; 900 μM, 72 Hours) was 25.21 ± 5.96%, the “reduced proliferation by” value ([4]; SKBr3, 0.9 mM, 72 hours) was “about 80%” and the “effect on proliferation (in words)” value [5] was “decrease proliferation”. For the same compound, the “growth of breast cancer tumors in vivo (in words)” value [6] was “completely inhibited growth of these tumors in vivo”, the “behavioral effects in the animals” value ([7]; MK-801 at the dose indicated) was “no noticeable behavioral effects” and the “well-being as exemplified by body weight” value ([7]; MK-801 at the dose indicated) was “no apparent effect on their well-being”. The “Growth of small-cell tumors (in words)” value ([7]; escalating doses from 0.1 mg/kg once daily to 0.3 mg/kg twice daily) was “significantly (p<0.0001) reduced”, the “rate of tumor growth reduced to” value ([7]; i.p., escalating 0.1 to 0.3 mg/Kg over 10 days) was ~60 % that of controls and the IC50 (DMS-53 cells) was greater than 800 µM. The “effect on proliferation (in words)” value [8] was “decrease proliferation”, the IC50 (NCI-H146 cells) was 650 µM and the “reduction in fluorescent units” value ([9]; at 500, 600, 700, 800, and 900 μM compared to 100, 200 and 400 μM) was “more than 50%”. The “effect on cell growth (in words)” value ([9]; ovarian cancer cells, Alamar Blue) was “dramatic reductions in cell growth”.
